# Experiments:
# [1] = Fraction unbound incubation mixture containing human recombinant UGT1A9 at 1 to 250 uM after 10 mins by ultrafiltration method in presence of 0.1% fatty acid free BSA
# [2] = biological target: T1, UDP-glucuronosyltransferase 2B17 (Homo sapiens, UniProt O75795); experiment: Activity of human recombinant UGT2B17 expressed in baculovirus-infected insect cells assessed as enzyme-mediated glucuronidation per mg of protein after 10 mins in presence of UDPGA; type: ADME
# T1 sequence (O75795 whole entry): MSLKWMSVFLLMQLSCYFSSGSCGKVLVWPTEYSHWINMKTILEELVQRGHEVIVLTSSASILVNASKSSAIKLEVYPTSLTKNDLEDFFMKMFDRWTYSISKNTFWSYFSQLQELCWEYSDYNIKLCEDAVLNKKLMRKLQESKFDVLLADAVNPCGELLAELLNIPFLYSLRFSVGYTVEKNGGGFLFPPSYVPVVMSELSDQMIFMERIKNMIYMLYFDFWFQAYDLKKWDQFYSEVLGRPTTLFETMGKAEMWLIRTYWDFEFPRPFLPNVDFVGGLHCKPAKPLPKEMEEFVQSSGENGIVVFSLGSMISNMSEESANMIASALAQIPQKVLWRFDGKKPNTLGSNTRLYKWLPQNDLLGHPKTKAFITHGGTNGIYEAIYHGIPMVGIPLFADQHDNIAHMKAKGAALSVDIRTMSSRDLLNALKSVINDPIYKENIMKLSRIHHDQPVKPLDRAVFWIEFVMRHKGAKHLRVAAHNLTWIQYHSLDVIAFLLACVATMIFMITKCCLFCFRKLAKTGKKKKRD
# Liver microsome = experiment: Unbound intrinsic clearance in human liver microsomes assessed per mg of protein after 10 mins in presence of UDPGA and 2% fatty acid free BSA; type: ADME
compound,measurement,setting,value
COc1ccc(C(=O)Nc2cccc(O)c2NC(=O)c2ccc(N3CCCN(C)CC3)cc2)cc1.O=C(O)CCC(=O)O,Fu,[1],0.755
same,Drug metabolism,[2],< 0.01 nmol/min/mg
same,CL free,Liver microsome,178 µL/min/mg

# — ChEMBL document CHEMBL3526122, “Identification of UDP-glucuronosyltransferases responsible for the glucuronidation of darexaban, an oral factor Xa inhibitor, in human liver and intestine” (Drug Metab Dispos, 2012)
